From patent US20240228507A1, “GREEN SOLVENTS FOR CHEMICAL REACTIONS” (ECOLE POLYTECHNIQUE FÉDÉRALE DE LAUSANNE (EPFL), priority 2021, published 2024) come the findings set out here.

Series [1] is described as follows: Kamlet-Abboud-Taft solvatochromic parameters (dye absorption spectra). It is filed as physicochemical. The settings on record: for Kamlet-Taft Parameters Π* / Kamlet-Taft Parameters α / Kamlet-Taft Parameters β: Table 1a; for Kamlet-Abboud-Taft α / Kamlet-Abboud-Taft β / Kamlet-Abboud-Taft π: Table 1c; for Kamlet-Taft Π* / Kamlet-Taft α / Kamlet-Taft β: Table 4. The source says: Determination of the Kamlet-Abboud-Taft parameters was based on the absorption spectrum of two dyes (N,N-diethyl-4-nitroaniline and 4-nitroaniline) in different solvents, that allow calculating corresponding values using known procedures (P. G. Jessop, D. A. Jessop, D. Fu and L. Phan, Green Chem., 2012, 14, 1245-1259).

A further series is described as follows: Flash point. It is filed as physicochemical.
A short description of series [2]: Maximum absorbance of Nile Red dye in the solvent. It is filed as physicochemical. As to the method: The absorbance spectra of 4-nitroaniline dye (cf. FIG. 10a), N,N-diethyl-4-nitroaniline dye (cf. FIG. 10b) as well as of Nile Red dye (cf. FIG. 10c) in the compounds 1, 3, 4 and 24 of claim 13 as well as in DMSO were measured. Nile Red absorbance is dependent on polarity and acidity, but as acidity is 0 in the case of aprotic solvents, the value is only polarity dependent. This differs from π*, which is both polarity and polarizability dependent. The maximum absorbance of Nile Red in 1, 3, 4 and 24 was measured to be 543, 536, 534.5 and 535 nm respectively. […] Values for 3, 4 and 24 are similar to conventional medium polarity aprotic solvents such as dichloromethane (535.2 nm) and acetonitrile (531.6 nm).
The Nile red value for DEX:PG is 553 nm, indicating similar chemical behavior to Methanol (550 nm) and Ethanolamine (557 nm).

The nature of series [3]: Miscibility with different solvents. It is filed as physicochemical. Details: key: “*” indicating—not miscible. The settings on record: Table 1d; blank cell = miscible.
Series [4] in a line: Stability under acidic conditions. It is filed as physicochemical.
Series [5] is described as follows: Stability of DFX under basic conditions (GC-FID/GC-MS, colour change). It is filed as physicochemical. The note with it: Pyridine and KOAc. As to the method:
To assess DFX stability under basic conditions, we tested a series of organic and inorganic bases at 80° C. and 110° C. for maximum 48 h (Table 6). Visual color change compared to a blank solution of pure DFX indicated some reactions were occurring. After 0.5 h, 24 h, 48 h of exposure, the samples were injected in GC-FID and GC-MS and the area of DFX was compared with the one in blank sample using decane as the internal standard. As a result of this experiment, we identified some potential limitations of this emerging solvent. Specifically, inorganic bases such as K2CO3, NaOH, CsCO3 led to the highest extent of degradation (maximum 21% after 48 h). Triethylamine (NEt3) caused less than 5% of degradation, but led to the formation of dark solution as well as K2CO3, NaOH, CsCO3. Probably, impurities existing in DFX (95% pure) also contribute to a color change as they could interact with bases.

In general, melting point refers to the temperature, or range, at which the solid turns liquid.

In the case of `CCCCN1CCCC1=O` [N-butylpyrrolidinone], in series [1], the “Kamlet-Taft Parameters Π*” value is listed as 0.77, the “Kamlet-Taft Parameters α” value is 0.00 and the “Kamlet-Taft Parameters β” value is listed as 0.92.
`COC(=O)C1OC[C@H]2O[C@@H]3OC(C(=O)OC)O[C@@H]3[C@H]2O1` (some centres unmarked) [Compound 14] had a melting point of 83 °C.
The compound `COC(C)(C)C` [MTBE] showed a Flash point in the series “Flash point” of −28 °C.
Consider `C1CCOC1` [THF, Tetrahydrofuran], for which, in series [1], the “Kamlet-Abboud-Taft α” value is reported as 0, the “Kamlet-Abboud-Taft β” value came to 0.55 and the “Kamlet-Abboud-Taft π” value is 0.58.
Regarding `CC(C)(C)C1OC[C@H]2O[C@@H]3OC(C(C)(C)C)O[C@@H]3[C@H]2O1` (some centres unmarked) [Compound 5], the melting point was determined as 120 °C.
Regarding `CCCC1OC[C@H]2O[C@@H]3OC(CCC)O[C@@H]3[C@H]2O1` (some centres unmarked) [Compound 24], the melting point turned out to be 24.5 °C. Also, in series [1], the “Kamlet-Abboud-Taft α” value is listed as 0, the “Kamlet-Abboud-Taft β” value came to 0.56 and the “Kamlet-Abboud-Taft π” value came to 0.65. The “maximum absorbance of Nile Red” value in series [2] is reported as 535 nm. Besides, the “Miscibility with Water” value in series [3] is “*”.
Turning to `CC#N` [Acetonitrile, acetonitrile], in series [1], the “Kamlet-Taft Π*” value worked out at 0.8, the “Kamlet-Taft α” value is listed as 0.35 and the “Kamlet-Taft β” value is 0.37. Also, in series [2], the “maximum absorbance of Nile Red” value worked out at 531.6 nm.
For the compound `C1COCCO1` [1,4-dioxane], in series [1], the “Kamlet-Taft Parameters Π*” value stood at 0.55, the “Kamlet-Taft Parameters α” value was determined as 0.00, the “Kamlet-Taft Parameters β” value is 0.37 and the “Kamlet-Abboud-Taft α” value is reported as 0. Besides, in series [1], the “Kamlet-Abboud-Taft β” value is recorded as 0.37 and the “Kamlet-Abboud-Taft π” value was 0.55.
With `O=C1OCCO1` [Ethylene carbonate], in series [1], the “Kamlet-Taft Parameters Π*” value was 0.99, the “Kamlet-Taft Parameters α” value is 0.00 and the “Kamlet-Taft Parameters β” value came out at 0.32.
Take `CC(C)C1OCC2OC3OC(C(C)C)OC3C2O1` (centres unmarked) [DIBX, Diisobutylxylose]: the “sensitivity to strong acids (visual, orange-colored solution)” value (“sensitivity to strong acids” for short) in series [4] was “showed sensitivity to strong acids”.
In the series “Flash point”, `CC1CCCO1` (centres unmarked) [Compound 2-Me-THF] showed a Flash point of −10 °C.
Turning to `C[S+](C)[O-]` [DMSO, dimethyl sulfoxide], in series [1], the “Kamlet-Taft Parameters Π*” value turned out to be 1.00, the “Kamlet-Taft Parameters α” value is 0.00 and the “Kamlet-Taft Parameters β” value is reported as 0.74.
`CC1OC[C@H]2O[C@@H]3OC(C)O[C@@H]3[C@H]2O1` (some centres unmarked) [Compound 2] came in with a melting point of 60 °C.
With `CC(C)(C)C1OCC2OC3OC(C(C)(C)C)OC3C2O1` (centres unmarked) [DNPX, Dineopentylxylose], in series [4], the “sensitivity to strong acids” value was “showed sensitivity to strong acids”.
For `NCCO` [Ethanolamine], the “maximum absorbance of Nile Red” value in series [2] worked out at 557 nm.
The compound `CC(C)C1OC[C@H]2O[C@@H]3OC(C(C)C)O[C@@H]3[C@H]2O1` (some centres unmarked) [Compound 4] gave a melting point of 31 °C. In series [1], the “Kamlet-Abboud-Taft α” value worked out at 0, the “Kamlet-Abboud-Taft β” value turned out to be 0.51 and the “Kamlet-Abboud-Taft π” value is 0.63. Besides, the “maximum absorbance of Nile Red” value in series [2] is listed as 534.5 nm.
On to `O=C1CC[C@H]2CO[C@@H]1O2` [Cyrene], for which, in series [1], the “Kamlet-Taft Parameters Π*” value worked out at 0.93, the “Kamlet-Taft Parameters α” value is 0.00 and the “Kamlet-Taft Parameters β” value is reported as 0.61. The compound also showed a Flash point in the series “Flash point” of 108 °C. Besides, in series [4] (95° C. or 70° C., 0.8M HCl, 15 min), the “stability under acidic conditions” value is “extensive degradation”.
With `CC1CCC(=O)O1` (centres unmarked) [GVL, -valerolactone], in series [1], the “Kamlet-Taft Parameters Π*” value amounted to 0.83, the “Kamlet-Taft Parameters α” value is on record as 0.00 and the “Kamlet-Taft Parameters β” value amounted to 0.60. The same compound registered a Flash point in the series “Flash point” of 96.1 °C.
As for `CC1(C)OC[C@H]2O[C@@H]3OC(C)(C)O[C@@H]3[C@H]2O1` [Compound 11], the melting point was found to be 43 °C.
With `C1OC[C@H]2O[C@@H]3OCO[C@@H]3[C@H]2O1` [Compound 1, Diformylxylose], the melting point came out at 48 °C. In addition, the “effect on stability” value in series [5] is on record as “didn't show any significant effect”.
On to `CO` [Methanol, methanol], for which the “maximum absorbance of Nile Red” value in series [2] is on record as 550 nm.
With `CCCC1OCC2OC3OC(CCC)OC3C2O1` (centres unmarked) [DBX, Dibutylxylose], in series [4], the “sensitivity to strong acids” value was “showed sensitivity to strong acids”.
Regarding `CC1CCCO1` (centres unmarked) [Compound 2-MeTHF, 2-methyltetrahydrofuran], in series [1], the “Kamlet-Abboud-Taft α” value is 0, the “Kamlet-Abboud-Taft β” value turned out to be 0.58 and the “Kamlet-Abboud-Taft π” value is reported as 0.53.
For `CN(C)C=O` [DMF, N,N-dimethylformamide], the “maximum absorbance of Nile Red” value in series [2] came out at 541 nm.
`CCC1OC[C@H]2O[C@@H]3OC(CC)O[C@@H]3[C@H]2O1` (some centres unmarked) [Compound 3] had a melting point of 34 °C. For the same compound, in series [1], the “Kamlet-Abboud-Taft α” value amounted to 0, the “Kamlet-Abboud-Taft β” value amounted to 0.63 and the “Kamlet-Abboud-Taft π” value was 0.68. The “maximum absorbance of Nile Red” value in series [2] was determined as 536 nm.
Regarding `C1CCCCC1` [Cyclohexane, cyclohexane], in series [1], the “Kamlet-Abboud-Taft α” value was determined as 0, the “Kamlet-Abboud-Taft β” value worked out at 0 and the “Kamlet-Abboud-Taft π” value was 0.
Turning to `O=S1(=O)CCCC1` [Sulfolane], in series [1], the “Kamlet-Taft Parameters Π*” value amounted to 0.98, the “Kamlet-Taft Parameters α” value worked out at 0.00 and the “Kamlet-Taft Parameters β” value worked out at 0.39. Moreover, the “maximum absorbance of Nile Red” value in series [2] is recorded as 545 nm.
`ClCCl` [dichloromethane]: in series [2], the “maximum absorbance of Nile Red” value is reported as 535.2 nm.
With `CCC1OCC2OC3OC(CC)OC3C2O1` (centres unmarked) [DPX, Dipropylxylose], in series [4], the “sensitivity to strong acids” value was “showed sensitivity to strong acids”.
`CC(C)=O` [Acetone, acetone]: in series [1], the “Kamlet-Taft Π*” value was 0.71, the “Kamlet-Taft α” value is 0.08 and the “Kamlet-Taft β” value is 0.48.
As to `COC1CCCC1` [CPME, cyclopentyl methyl ether], in “Flash point”, the Flash point is −1 °C.
